The values that follow come from paper PMC9913174, “Potent Inhibition of Macropinocytosis by Niclosamide in Cancer Cells: A Novel Mechanism for the Anticancer Efficacy for the Antihelminthic” (Cancers, 2023).

This test addresses SLC38A5 (Homo sapiens, UniProt Q8WUX1). As to the kind of experiment: inhibition of Li+-stimulated [3H]-serine uptake in HPAF-II and TXBR-100 cells (endogenous transporter). It counts as cell-based.

Sequence of SLC38A5 (Q8WUX1 whole entry): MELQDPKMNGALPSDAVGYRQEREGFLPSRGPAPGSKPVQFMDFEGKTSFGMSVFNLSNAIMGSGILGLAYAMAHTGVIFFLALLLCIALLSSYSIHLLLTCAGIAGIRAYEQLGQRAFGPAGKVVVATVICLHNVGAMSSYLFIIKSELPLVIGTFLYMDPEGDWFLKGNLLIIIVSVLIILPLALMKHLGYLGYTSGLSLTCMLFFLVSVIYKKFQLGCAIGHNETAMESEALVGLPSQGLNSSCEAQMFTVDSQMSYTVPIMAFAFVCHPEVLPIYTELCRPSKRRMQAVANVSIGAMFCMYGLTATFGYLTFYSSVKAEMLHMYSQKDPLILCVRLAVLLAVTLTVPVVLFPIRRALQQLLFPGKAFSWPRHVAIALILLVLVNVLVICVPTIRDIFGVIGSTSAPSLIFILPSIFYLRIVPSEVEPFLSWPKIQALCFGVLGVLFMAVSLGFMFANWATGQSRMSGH

Usually IC50 stands for the concentration that inhibits the measured activity by half. Read a low IC50 as inhibition by little substance. With `O=C(Nc1ccc([N+](=O)[O-])cc1Cl)c1cc(Cl)ccc1O` [niclosamide], the IC50 was in the range of 1 to 2.5 µM.
